# Patent publication US20240182481A1 (Tango Therapeutics, Inc., priority 2021, published 2024)
# Assays:
# USP1-UAF1 = USP1-UAF1 (Homo sapiens, UniProt O94782); experiment: Ubiquitin Rhodamine assay for USP1-UAF1 activity; type: biochemical
# Experimental: Certain compounds of the disclosure were assessed for USP1-UAF1 activity in a Ubiquitin Rhodamine assay as described in Example 135.
# [1] = system: MDA-MB-436 (BRCA1 mutant) cell line; experiment: Viability assay in BRCA1 mutant cell line MDA-MB-436; type: cell-based; details: Homo sapiens, MDA-MB-436, viability, BRCA1 mutant MDA-MB-436; read-out: MDA-MB-436 rel IC50
# Excerpt: (§1) Table 1 also indicates IC50 values in a viability assay for a non-isogenic pair of BRCA1 mutant (column 5—MDA-MB-436) and BRCA1 WT (column 6—HCC1954) cell lines. These values indicate the effect of treatment with compound on cell survival.
# [2] = system: HCC1954 (BRCA1 WT) cell line; experiment: Viability assay in BRCA1 WT cell line HCC1954; type: cell-based; details: for IC50: Homo sapiens, read-out: HCC 1954 IC50 rel IC50
# Excerpt: as §1
# monoubiquitinated PCNA = experiment: AlphaLISA assay measuring monoubiquitinated PCNA in MDA-MB-436; type: cell-based; details: Homo sapiens, read-out: Alpha LISA IC50
# Excerpt: Table 1 also indicates IC50 values for exemplary compounds in an AlphaLISA assay measuring monoubiquitinated PCNA in a BRCA1 mutant cell line (MDA-MB-436; column 7).
# USP1-UAF1, sequence (O94782 whole entry): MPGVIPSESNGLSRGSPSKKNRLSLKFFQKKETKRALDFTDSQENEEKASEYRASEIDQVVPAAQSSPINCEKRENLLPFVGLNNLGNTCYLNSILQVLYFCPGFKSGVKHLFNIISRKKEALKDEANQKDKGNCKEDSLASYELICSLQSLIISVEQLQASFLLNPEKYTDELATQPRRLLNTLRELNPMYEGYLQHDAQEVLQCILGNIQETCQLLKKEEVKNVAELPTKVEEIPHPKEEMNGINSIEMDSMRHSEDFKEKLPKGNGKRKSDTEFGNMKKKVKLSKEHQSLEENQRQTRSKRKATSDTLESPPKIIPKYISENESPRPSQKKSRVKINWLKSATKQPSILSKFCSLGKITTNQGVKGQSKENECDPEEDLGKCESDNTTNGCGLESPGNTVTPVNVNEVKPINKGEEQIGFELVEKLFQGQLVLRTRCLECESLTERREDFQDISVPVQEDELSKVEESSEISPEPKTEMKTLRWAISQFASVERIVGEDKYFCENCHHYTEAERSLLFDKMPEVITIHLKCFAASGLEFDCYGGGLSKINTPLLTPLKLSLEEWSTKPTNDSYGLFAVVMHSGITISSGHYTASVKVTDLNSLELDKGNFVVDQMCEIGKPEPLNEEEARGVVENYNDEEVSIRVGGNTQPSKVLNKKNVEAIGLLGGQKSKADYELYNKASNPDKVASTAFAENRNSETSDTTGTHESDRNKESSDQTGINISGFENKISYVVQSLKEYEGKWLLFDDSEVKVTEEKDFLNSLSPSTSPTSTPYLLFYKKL
# USP1-UAF1, sequence (Q8TAF3 whole entry partner): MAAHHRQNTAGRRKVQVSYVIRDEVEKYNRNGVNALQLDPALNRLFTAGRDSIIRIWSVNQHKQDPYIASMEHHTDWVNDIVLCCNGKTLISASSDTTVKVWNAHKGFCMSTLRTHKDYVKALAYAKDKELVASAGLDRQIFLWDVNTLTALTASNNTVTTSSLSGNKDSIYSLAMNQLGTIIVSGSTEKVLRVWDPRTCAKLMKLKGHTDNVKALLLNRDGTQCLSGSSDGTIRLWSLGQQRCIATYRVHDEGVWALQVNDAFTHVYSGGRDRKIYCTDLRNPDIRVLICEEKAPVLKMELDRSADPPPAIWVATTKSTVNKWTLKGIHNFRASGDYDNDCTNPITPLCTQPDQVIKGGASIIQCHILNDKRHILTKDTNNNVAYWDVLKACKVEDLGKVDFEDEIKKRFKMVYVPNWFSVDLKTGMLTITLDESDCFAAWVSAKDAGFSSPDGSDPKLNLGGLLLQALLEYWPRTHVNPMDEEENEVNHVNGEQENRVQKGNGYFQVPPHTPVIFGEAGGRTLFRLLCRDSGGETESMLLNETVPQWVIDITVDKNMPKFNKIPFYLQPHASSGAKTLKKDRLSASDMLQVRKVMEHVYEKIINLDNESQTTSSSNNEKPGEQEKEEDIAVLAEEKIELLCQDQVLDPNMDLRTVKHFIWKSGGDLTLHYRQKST
Structure (SMILES),IC50 (USP1-UAF1),IC50 [1],IC50 [2],IC50 (monoubiquitinated PCNA),HCC 1954 IC50 rel IC50 [2]
"COc1ncnc(C2CC2)c1-c1ncc2[nH]nc(Cc3ccc(-c4nc(C(F)(F)F)cn4C)cc3F)c2n1 [Compound 189, 5-(4-cyclopropyl-6-methoxy-pyrimidin-5-yl)-3-[[2-fluoro-4-[1-methyl-4-(trifluoromethyl)imidazol-2-yl]phenyl]methyl]-1H-pyrazolo[4,3-d]pyrimidine]",30 to 100 nM,< 100 nM,≥ 10 µM,< 100 nM,–
"COc1ncnc(C2CC2)c1-c1cc2c(Oc3ccc(-c4nc(C(F)(F)F)cn4C)cc3)c[nH]c2cn1 [Compound 167, 5-(4-cyclopropyl-6-methoxy-pyrimidin-5-yl)-3-[4-[1-methyl-4-(trifluoromethyl)imidazol-2-yl]phenoxy]-1H-pyrrolo[2,3-c]pyridine]",30 to 100 nM,< 100 nM,≥ 10 µM,< 100 nM,–
"CN(C)c1ncccc1-c1ncc2[nH]cc(Cc3ccc(-c4nc(C(F)(F)F)cn4C)cc3)c2n1 [Compound 29, N,N-dimethyl-3-[7-[[4-[1-methyl-4-(trifluoromethyl)imidazol-2-yl]phenyl]methyl]-5H-pyrrolo[3,2-d]pyrimidin-2-yl]pyridin-2-amine]",100 to 10000 nM,250 to 10000 nM,≥ 10 µM,250 to 10000 nM,–
"CCCOc1ncccc1-c1ncc2[nH]cc(Cc3ccc(-c4nc(C(F)(F)F)cn4C)cc3)c2n1 [Compound 34, 7-[[4-[1-methyl-4-(trifluoromethyl)imidazol-2-yl]phenyl]methyl]-2-(2-propoxy-3-pyridyl)-5H-pyrrolo[3,2-d]pyrimidine]",30 to 100 nM,100 to 250 nM,≥ 10 µM,100 to 250 nM,–
"COc1ncnc(C2CC2(F)F)c1-c1ncc2[nH]cc(Cc3ccc(-c4nc(C(F)(F)F)cn4C)cc3)c2n1 (stereo not drawn) [Compound 147, 2-[4-(2,2-difluorocyclopropyl)-6-methoxy-pyrimidin-5-yl]-7-[[4-[1-methyl-4-(trifluoromethyl)imidazol-2-yl]phenyl]methyl]-5H-pyrrolo[3,2-d]pyrimidine]",< 30 nM,< 100 nM,≥ 10 µM,< 100 nM,–
"Cn1cc(C(F)(F)F)nc1-c1ccc(Cc2c[nH]c3cnc(-c4cccnc4OC4CC4)nc23)cc1 [Compound 41, 2-cyclopropoxy-3-[7-([4-[1-methyl-4-(trifluoromethyl)imidazol-2-yl]phenyl]methyl)-5H-pyrrolo[3,2-d]pyrimidin-2-yl]pyridine]",30 to 100 nM,100 to 250 nM,≥ 10 µM,< 100 nM,–
"Cn1cc(C(F)(F)F)nc1-c1ccc(C(O)c2c[nH]c3cnc(-c4c(OC(F)F)ncnc4C4CC4)nc23)cc1 (stereo not drawn) [Compound 168, [2-[4-cyclopropyl-6-(difluoromethoxy)pyrimidin-5-yl]-5H-pyrrolo[3,2-d]pyrimidin-7-yl]-[4-[1-methyl-4-(trifluoromethyl)imidazol-2-yl]phenyl]methanol]",30 to 100 nM,< 100 nM,0.25 to 10 µM,< 100 nM,–
Cn1cc(C(F)(F)F)nc1-c1ccc(Cc2c[nH]c3cnc(-c4c(C5CC5)ccnc4C4CC4)nc23)cc1 [Compound 122],< 30 nM,100 to 250 nM,≥ 10 µM,250 to 10000 nM,–
"COc1ncnc(C2CC2)c1-c1ncc2[nH]c(CN(C)C)c(Cc3ccc(-c4nc(C(F)(F)F)cn4C)cc3)c2n1 [Compound 176, 1-[2-(4-cyclopropyl-6-methoxy-pyrimidin-5-yl)-7-[[4-[1-methyl-4-(trifluoromethyl)imidazol-2-yl]phenyl]methyl]-5H-pyrrolo[3,2-d]pyrimidin-6-yl]-N,N-dimethyl-methanamine]",30 to 100 nM,< 100 nM,≥ 10 µM,< 100 nM,–
"COc1ncnc(C2CC2)c1-c1ncc2[nH]cc(Cc3ccc(-c4nc(C(F)(F)F)cn4C)cc3F)c2n1 [Compound 120, 2-(4-cyclopropyl-6-methoxy-pyrimidin-5-yl)-7-[[2-fluoro-4-[1-methyl-4-(trifluoromethyl)imidazol-2-yl]phenyl]methyl]-5H-pyrrolo[3,2-d]pyrimidine]",< 30 nM,< 100 nM,≥ 10 µM,< 100 nM,–
"COc1nccc(C2CC2)c1-c1ncc2[nH]cc(Cc3ccc(-c4nc(C(F)(F)F)cn4C)cc3)c2n1 [Compound 152, 2-(4-cyclopropyl-2-methoxy-3-pyridyl)-7-[[4-[1-methyl-4-(trifluoromethyl)imidazol-2-yl]phenyl]methyl]-5H-pyrrolo[3,2-d]pyrimidine]",< 30 nM,< 100 nM,≥ 10 µM,< 100 nM,–
"COc1ncnc(C2CC2)c1-c1ncc2[nH]cc(Oc3ccc(-c4nc(C(F)(F)F)cn4C)cc3)c2n1 [Compound 69, 2-(4-cyclopropyl-6-methoxy-pyrimidin-5-yl)-7-[4-[1-methyl-4-(trifluoromethyl)imidazol-2-yl]phenoxy]-5H-pyrrolo[3,2-d]pyrimidine]",100 to 10000 nM,250 to 10000 nM,≥ 10 µM,250 to 10000 nM,–
CC(C)n1cc(C(F)(F)F)nc1-c1ccc(C(O)c2c[nH]c3cnc(-c4c(OC(F)F)ncnc4C4CC4)nc23)cc1 (stereo not drawn) [Compound 92],30 to 100 nM,< 100 nM,–,< 100 nM,dd
"Cn1cc(C(F)(F)F)nc1-c1ccc(C(O)c2c[nH]c3cnc(-c4c(OC(F)F)ncnc4C4CC4)nc23)cc1 (single isomer, unassigned) [Compound 103]",30 to 100 nM,< 100 nM,≥ 10 µM,< 100 nM,–
"COc1ncnc(C2CC2(F)F)c1-c1ncc2[nH]nc(Cc3ccc(-c4nc(C(F)(F)F)cn4C)cc3)c2n1 (stereo not drawn) [Compound 172, 5-[4-(2,2-difluorocyclopropyl)-6-methoxy-pyrimidin-5-yl]-3-[[4-[1-methyl-4-(trifluoromethyl)imidazol-2-yl]phenyl]methyl]-1H-pyrazolo[4,3-d]pyrimidine]",< 30 nM,< 100 nM,≥ 10 µM,< 100 nM,–
"COc1ncnc(C2CC2)c1-c1ncc2[nH]nc(Cc3ccc(-c4nc(C(F)(F)F)cn4C)c(F)c3)c2n1 [Compound 90, 5-(4-cyclopropyl-6-methoxypyrimidin-5-yl)-3-(3-fluoro-4-(1-methyl-4-(trifluoromethyl)-1H-imidazol-2-yl)benzyl)-1H-pyrazolo[4,3-d]pyrimidine]",< 30 nM,< 100 nM,≥ 10 µM,< 100 nM,–
COc1ncnc(C2CC2)c1-c1ncc2[nH]nc(Cc3cc(F)c(-n4nc(C(F)(F)F)cc4C)c(F)c3)c2n1 [Compound 129],< 30 nM,100 to 250 nM,0.25 to 10 µM,100 to 250 nM,–

# Next, values leading:
IC50 (USP1-UAF1),IC50 [1],IC50 [2],IC50 (monoubiquitinated PCNA),HCC 1954 IC50 rel IC50 [2],Structure (SMILES)
< 30 nM,< 100 nM,0.25 to 10 µM,< 100 nM,–,"CCOc1cc(C(F)(F)F)nn1-c1ccc(Cc2n[nH]c3cnc(-c4c(OC)ncnc4C4CC4)nc23)cc1 [Compound 123, 5-(4-cyclopropyl-6-methoxy-pyrimidin-5-yl)-3-[[4-[5-ethoxy-3-(trifluoromethyl)pyrazol-1-yl]phenyl]methyl]-1H-pyrazolo[4,3-d]pyrimidine]"
< 30 nM,< 100 nM,≥ 10 µM,< 100 nM,–,"COc1ncnc(C2CC2)c1-c1ncc2[nH]c(F)c(Cc3ccc(-c4nc(C(F)(F)F)cn4C)cc3)c2n1 [Compound 181, 2-(4-cyclopropyl-6-methoxy-pyrimidin-5-yl)-6-fluoro-7-[[4-[1-methyl-4-(trifluoromethyl)imidazol-2-yl]phenyl]methyl]-5H-pyrrolo[3,2-d]pyrimidine]"
< 30 nM,250 to 10000 nM,≥ 10 µM,100 to 250 nM,–,"CC(C)c1ccccc1-c1ncc2c(n1)c(Cc1ccc(-c3nc(C(F)(F)F)cn3C)cc1)cn2CCO [Compound 57, 2-[2-(2-isopropylphenyl)-7-[[4-[1-methyl-4-(trifluoromethyl)imidazol-2-yl]phenyl]methyl]pyrrolo[3,2-d]pyrimidin-5-yl]ethanol]"
< 30 nM,< 100 nM,≥ 10 µM,< 100 nM,–,CC(C)n1cc(C(F)(F)F)nc1-c1ccc(Cc2c[nH]c3cnc(-c4c(OC(F)F)ncnc4C4CC4)nc23)cc1 [Compound 132]
< 30 nM,< 100 nM,≥ 10 µM,< 100 nM,–,"[2H]C([2H])([2H])n1cc(C(F)(F)F)nc1-c1ccc(Cc2c[nH]c3cnc(-c4c(OC)ncnc4C4CC4)nc23)cc1 [Compound 135, 2-(4-cyclopropyl-6-methoxy-pyrimidin-5-yl)-7-[[4-[1-(trideuteriomethyl)-4-(trifluoromethyl)imidazol-2-yl]phenyl]methyl]-5H-pyrrolo[3,2-d]pyrimidine]"
< 30 nM,< 100 nM,≥ 10 µM,< 100 nM,–,"COc1ncnc(C2(F)CC2)c1-c1ncc2[nH]nc(Cc3ccc(-c4nc(C(F)(F)F)cn4C)cc3)c2n1 [Compound 202, 5-[4-(1-fluorocyclopropyl)-6-methoxy-pyrimidin-5-yl]-3-[[4-[1-methyl-4-(trifluoromethyl)imidazol-2-yl]phenyl]methyl]-1H-pyrazolo[4,3-d]pyrimidine]"
< 30 nM,< 100 nM,≥ 10 µM,< 100 nM,–,"Cn1cc(C(F)(F)F)nc1-c1ccc(Cc2c[nH]c3cnc(-c4cccnc4C4CC4)nc23)cc1 [Compound 60, 2-(2-cyclopropyl-3-pyridyl)-7-[[4-[1-methyl-4-(trifluoromethyl)imidazol-2-yl]phenyl]methyl]-5H-pyrrolo[3,2-d]pyrimidine]"
